Test results: patent US4371537A, “Sulfur-substituted phenoxypyridines having antiviral activity” (The Dow Chemical Company, priority 1981, dated 1983)
Converted amounts (≈) assume the structure as drawn. Like-named read-outs stand apart in the source and are kept apart here.

Legend:
[1] = test system: rhinovirus type 1A (RV-1A); assay: Tissue culture testing, rhinovirus type 1A in HeLa cells; type: cell-based; conditions: 48 and 72 hours, NA = not active at the standard test conditions; for EC50: Enterovirus, read-out: RV-1A: lowest concentration of the compound necessary to cause a 50 percent reduction in cytopathic effect
Experimental: (§1) Monolayered HeLa cells in 16 millimeter (mm) tissue culture dishes were treated with 1 ml of culture medium (Eagles medium supplemented with fetal calf serum) containing subject compound at an appropriate concentration or containing no compound at all. Culture media such as those described herein are more fully described in standard texts, as for example, Kuchler's Biochemical Methods in Cell Culture and Virology, Dowden, Hutchinson and Ross, Inc., Stroudsberg, PA (1977). Following treatment, cells were challenged with 0.05 ml of rhinovirus type 1A (RV-1A), rhinovirus type 2 (RV-2) or Coxsackie A21 virus (Cox A21) in culture medium. Some of the compounds were also tested against rhinovirus type 5 (RV-5), rhinovirus type 8 (RV-8) or rhinovirus type 64 (RV-64). Cell controls received no viruses.
(§2) ^2 Lowest concentration of the compound (μg/ml) necessary to cause

[2] = test system: Coxsackie A21 virus (Cox A21); assay: Tissue culture testing, Coxsackie A21 virus in HeLa cells; type: cell-based; conditions: 48 and 72 hours, NA = not active at the standard test conditions; for EC50: read-out: Cox A21: lowest concentration of the compound necessary to cause a 50 percent reduction in cytopathic effect
Experimental: as §1, §2

[3] = test system: rhinovirus type 2 (RV-2); assay: Tissue culture testing, rhinovirus type 2 in HeLa cells; type: cell-based; conditions: 48 and 72 hours, NA = not active at the standard test conditions; for EC50: Enterovirus, read-out: RV-2: lowest concentration of the compound necessary to cause a 50 percent reduction in cytopathic effect
Experimental: as §1, §2

[4] = test system: Coxsackie A21 virus; assay: Continuous Oral Feeding test in mice challenged IP with Coxsackie A21 virus; type: in vivo; conditions: for Continuous Oral Feeding: toxicity of the test compound at the indicated dosage: 0.06% in diet, "toxic" = significantly toxic at the indicated dosage; for Continuous Oral Feeding X^2 (chi-square, deaths vs control): 0.06 % in diet, 240 h
Experimental: Some of the compounds were also tested in animals utilizing the following procedure, hereainafter referred to as the "Continuous Oral Feeding" test. Coxsackie A21 virus grown on HeLa cells was administered at a concentration that produces 80 to 100% deaths in mice weighing 8 to 12 grams within 10 days, when the mice are injected (IP) with 0.2 ml of virus preparation. Mice were placed on diets containing test compound dispersed in plain commercially available rodent mash chow at a concentration of 0.06% (weight percent) on day 0. On day 1 the mice were challenged with the virus preparation, 0.2 ml/mouse, (IP). Deaths in both control and experimental groups were recorded for the 10 days and the results analyzed by a chi-square (.chi.^2) test. Chi-square values greater than 3.84 indicate the compound is active (95% confidence level).

[5] = Cytotoxicity in tissue culture testing (HeLa monolayers); type: cell-based; conditions: human, HeLa cells
Experimental: as §1
^1 Cytotoxicity figures represent the concentration of the compound, […]

[6] = test system: Cox A21; assay: Single Oral Dose test in mice challenged IP with Cox A21; type: in vivo, Swiss male mice; conditions: 600 mg/kg P.O. 3 h after IP challenge; >3.84 significant (95% confidence level)
Experimental: In addition, some of the compounds were tested in animals utilizing the following procedure, hereinafter referred to as the "Single Oral Dose" test. Swiss male mice, 8-12 grams in weight were challenged intraperitoneally (IP) with 0.2 ml of a normally lethal dose, i.e., a virus dose sufficient to cause […].80-100% mortality in infected animals within 10 days of challenge of Cox A21, in phosphate buffered saline containing 1% heat inactivated fetal calf serum. Three hours later mice were treated orally (P.O.) with 0.2 ml of compound suspended in 0.5% hydroxypropyl methylcellulose (Methocel) or with 0.2 ml of 0.5% Methocel containing no compound. […] Mice were observed daily for 7-10 days post-challenge and deaths recorded. A modified Mantel-Haenzel combined chi-square procedure was used to determine significant difference between virus control and treated groups. Chi-square values greater than 3.84 are considered significant (95% confidence level) in this test.

[7] = observed at 48 and 72 hours post-treatment, read-out: Cytotoxicity: concentration of the compound found to be toxic to the cell

Row | Structure (SMILES) | RV-1A: lowest concentration of the compound necessary to cause a 50 percent reduction in cytopathic effect [1] | Cox A21: lowest concentration of the compound necessary to cause a 50 percent reduction in cytopathic effect [2] | RV-2: lowest concentration of the compound necessary to cause a 50 percent reduction in cytopathic effect [3] | Continuous Oral Feeding: toxicity of the test compound at the indicated dosage [4] | Continuous Oral Feeding X^2 (chi-square, deaths vs control) [4] | EC50 [2] | MCC [5, 7] | EC50 [3] | EC50 [1] | Single Oral Dose X^2 (chi-square, deaths vs virus control) [6] | MCC ([5]; GI = growth inhibition, read-out: Cytotoxicity: concentration at which the compound inhibited the growth of the tissue culture (GI))
1 | CC(=O)c1ccc(Oc2cccc(S(C)(=O)=O)n2)cc1 [1-(4-((6-(methylsulfonyl)-2-pyridinyl)oxy)phenyl)ethanone] | not active | not active | not active | – | – | – | – | – | – | – | –
2 | CS(=O)(=O)c1ccc(Oc2ccc(Oc3ccccc3)cc2)nc1 [Example 28, 5-(methylsulfonyl)-2-(4-phenoxyphenoxy)pyridine] | – | – | – | toxic | 6.249 | 50 µg/mL (≈ 146 µM) | > 100 µg/mL | 25 µg/mL (≈ 73.2 µM) | – | – | –
3 | CC(C)(C)c1ccc(Oc2ccc(S(C)(=O)=O)cn2)cc1 [Example 33, 2-(4-(1,1-dimethylethyl)phenoxy)-5-(methylsulfonyl)pyridine] | – | – | – | – | 4.042 | – | > 100 µg/mL | 12.5 µg/mL (≈ 40.9 µM) | – | – | –
4 | CC(=O)c1ccc(Oc2ccc(S(C)(=O)=O)cn2)cc1 [Example 34, 1-(4-((5-(methylsulfonyl)-2-pyridinyl)oxy)phenyl)ethanone] | – | – | – | – | 1.727 | – | > 50 µg/mL | 12.5 µg/mL (≈ 42.9 µM) | 25 µg/mL (≈ 85.8 µM) | – | –
5 | CSc1ccc(Oc2ccc(S(C)(=O)=O)cn2)cc1 [Example 37, 2-(4-(methylthio)phenoxy)-5-(methylsulfonyl)pyridine] | – | – | – | – | – | 3 µg/mL (≈ 10.2 µM) | > 50 µg/mL | < 2 µg/mL | < 3 µg/mL | – | –
6 | CSc1ccc(Oc2ccc(Cl)c(Cl)c2)nc1 [Example 38, 2-(3,4-dichlorophenoxy)-5-(methylthio)pyridine] | – | – | – | – | – | 2.5 µg/mL (≈ 8.74 µM) | 25 µg/mL | 2.5 µg/mL (≈ 8.74 µM) | 1.25 µg/mL (≈ 4.37 µM) | 25.233 | –
7 | CCS(=O)(=O)c1ccc(Oc2ccc3c(c2)OCO3)nc1 [Example 41, 5-(ethylsulfonyl)-2-(3,4-methylenedioxyphenoxy)pyridine] | – | – | – | – | – | – | ≥ 50 µg/mL | 25 µg/mL (≈ 81.3 µM) | – | – | –
8 | CCS(=O)(=O)c1ccc(Oc2cc(Cl)c(Cl)cc2Cl)nc1 [Example 48, 5-(ethylsulfonyl)-2-(2,4,5-trichlorophenoxy)pyridine] | – | – | – | – | – | 6.25 µg/mL (≈ 17 µM) | > 50 µg/mL | 3.12 µg/mL (≈ 8.52 µM) | < 3.12 µg/mL | – | –
9 | CC(=O)c1ccc(Oc2ccc(S(=O)(=O)C(C)C)cn2)cc1 [Example 52, 1-(4-((5-((1-methylethyl)sulfonyl)-2-pyridinyl)oxy)phenyl)ethanone] | – | – | – | – | 1.140 | 25 µg/mL (≈ 78.3 µM) | ≥ 50 µg/mL | 50 µg/mL (≈ 157 µM) | 50 µg/mL (≈ 157 µM) | – | –
10 | CCCCCCS(=O)(=O)c1ccc(Oc2ccc(Br)cc2)nc1 [Example 53, 2-(4-bromophenoxy)-5-(n-hexylsulfonyl)pyridine] | – | – | – | – | 2.925 | 12.5 µg/mL (≈ 31.4 µM) | > 50 µg/mL | 25 µg/mL (≈ 62.8 µM) | 25 µg/mL (≈ 62.8 µM) | – | –
11 | CCCCCCS(=O)(=O)c1ccc(Oc2ccc(Cl)c(Cl)c2)nc1 [Example 54, 2-(3,4-dichlorophenoxy)-5-(n-hexylsulfonyl)pyridine] | – | – | – | – | 0.162 | – | > 50 µg/mL | 12.5 µg/mL (≈ 32.2 µM) | 12.5 µg/mL (≈ 32.2 µM) | – | –
12 | CC(=O)c1ccc(Oc2ccc(S(=O)(=O)C3CCCCC3)cn2)cc1 [Example 56, 1-(4-((5-(cyclohexylsulfonyl)-2-pyridinyl)oxy)phenyl)ethanone] | – | – | – | – | 0.019 | 3.12 µg/mL (≈ 8.69 µM) | 12.5 µg/mL | ~12.5 µg/mL (≈ 34.8 µM) | ~12.5 µg/mL (≈ 34.8 µM) | – | –
13 | O=S(=O)(c1ccc(Oc2ccc(Br)cc2)nc1)C1CCCCC1 [Example 57, 2-(4-bromophenoxy)-5-(cyclohexylsulfonyl)pyridine] | – | – | – | – | – | 6.25 µg/mL (≈ 15.8 µM) | 50 µg/mL | 25 µg/mL (≈ 63.1 µM) | 25 µg/mL (≈ 63.1 µM) | – | –
14 | O=S(=O)(c1ccc(Oc2ccc(Cl)c(Cl)c2)nc1)C1CCCCC1 [Example 58, 2-(3,4-dichlorophenoxy)-5-(cyclohexylsulfonyl)pyridine] | – | – | – | – | – | 25 µg/mL (≈ 64.7 µM) | 50 µg/mL | 12.5 µg/mL (≈ 32.4 µM) | 25 µg/mL (≈ 64.7 µM) | – | –
15 | O=C(c1ccccc1)c1ccc(Oc2ccc(S(=O)(=O)C3CCCCC3)cn2)cc1 [Example 59, (4-((5-(cyclohexylsulfonyl)-2-pyridinyl)oxy)phenyl)phenylmethanone] | – | – | – | – | – | < 3.12 µg/mL | 12.5 µg/mL | 12.5 µg/mL (≈ 29.7 µM) | 3.12 µg/mL (≈ 7.41 µM) | – | –
16 | O=C(c1ccccc1)c1ccc(Oc2ccc(S(=O)(=O)Cc3ccccc3)cn2)cc1 [Example 62, phenyl(4-((5-((phenylmethyl)sulfonyl)-2-pyridinyl)oxy)phenyl)methanone] | – | – | – | – | 0.066 | < 3.12 µg/mL | – | – | 25 µg/mL (≈ 58.2 µM) | – | 50 µg/mL
17 | CS(=O)(=O)c1ccnc(Oc2ccc(Cl)c(Cl)c2)c1 [Example 65, 2-(3,4-dichlorophenoxy)-4-(methylsulfonyl)pyridine] | – | – | – | – | – | < 3.12 µg/mL | 50 µg/mL | 25 µg/mL (≈ 78.6 µM) | 25 µg/mL (≈ 78.6 µM) | – | –
18 | CS(=O)(=O)c1cc(Oc2ccc(Cl)c(Cl)c2)ccn1 [Example 66, 4-(3,4-dichlorophenoxy)-2-(methylsulfonyl)pyridine] | – | – | – | – | – | 12.5 µg/mL (≈ 39.3 µM) | 25 µg/mL | 12.5 µg/mL (≈ 39.3 µM) | 12.5 µg/mL (≈ 39.3 µM) | – | –
19 | CS(=O)(=O)c1cccc(Oc2ccc(Cl)c(Cl)c2)n1 [Example 67, 2-(3,4-dichlorophenoxy)-6-(methylsulfonyl)pyridine] | – | – | – | toxic | 7.39 | ~50 µg/mL (≈ 157 µM) | 50 µg/mL | 12.5 µg/mL (≈ 39.3 µM) | 3.12 µg/mL (≈ 9.82 µM) | – | –
20 | CS(=O)(=O)c1cccc(Oc2ccc(Br)cc2)n1 [Example 70, 2-(4-bromophenoxy)-6-(methylsulfonyl)pyridine] | – | – | – | – | 0.035 | – | 25 µg/mL | 25 µg/mL (≈ 76.2 µM) | 25 µg/mL (≈ 76.2 µM) | – | –
21 | CS(=O)(=O)c1cccnc1Oc1ccc(Cl)c(Cl)c1 [Example 71, 2-(3,4-dichlorophenoxy)-3-(methylsulfonyl)pyridine] | – | – | – | – | – | 50 µg/mL (≈ 157 µM) | 50 µg/mL | 50 µg/mL (≈ 157 µM) | 25 µg/mL (≈ 78.6 µM) | – | –
22 | CS(=O)(=O)c1cccnc1Oc1ccc(C(=O)c2ccccc2)cc1 [Example 72, (4-((3-(methylsulfonyl)-2-pyridinyl)oxy)phenyl)phenylmethanone] | – | – | – | – | – | 12.5 µg/mL (≈ 35.4 µM) | 25 µg/mL | 25 µg/mL (≈ 70.7 µM) | 25 µg/mL (≈ 70.7 µM) | – | –
23 | CCS(=O)(=O)c1cccnc1Oc1ccc(Cl)c(Cl)c1 [Example 73, 2-(3,4-dichlorophenoxy)-3-(ethylsulfonyl)pyridine] | – | – | – | – | – | – | 25 µg/mL | 25 µg/mL (≈ 75.3 µM) | 25 µg/mL (≈ 75.3 µM) | – | –
24 | CSc1cncc(Oc2ccc(Cl)c(Cl)c2)c1 [Example 75, 3-(3,4-dichlorophenoxy)-5-(methylthio)pyridine] | – | – | – | – | – | 3.12 µg/mL (≈ 10.9 µM) | 6.25 µg/mL | 6.25 µg/mL (≈ 21.8 µM) | 6.25 µg/mL (≈ 21.8 µM) | – | –
25 | C[S+]([O-])c1cncc(Oc2ccc(Cl)c(Cl)c2)c1 (stereo not shown) [Example 76, 3-(3,4-dichlorophenoxy)-5-(methylsulfinyl)pyridine] | – | – | – | – | – | 25 µg/mL (≈ 82.7 µM) | 25 µg/mL | 6.25 µg/mL (≈ 20.7 µM) | 12.5 µg/mL (≈ 41.4 µM) | – | –
26 | CS(=O)(=O)c1cncc(Oc2ccc(Cl)c(Cl)c2)c1 [Example 77, 3-(3,4-dichlorophenoxy)-5-(methylsulfonyl)pyridine] | – | – | – | – | – | 3.12 µg/mL (≈ 9.82 µM) | > 50 µg/mL | 12.5 µg/mL (≈ 39.3 µM) | 6.25 µg/mL (≈ 19.6 µM) | – | –
